pEC50, pIC50: −log10 of the molar value.
How the values were obtained:
[1] = system: caspase-3/7; assay: Activation of apoptosis, Caspase-Glo 3/7 in HG-1 cells; format: cell-based; details: caspase-3/7 activation, 24 h
Experimental: Activation of caspase-3/7 signal following treatment with test compounds was carried out using a Caspase-Glo® 3/7 kit (Promega). In brief, HG-1 cells were seeded at a concentration of 1000 cells/well in 50 μl medium into 96-well plates and incubated for 24 h under the conditions described previously. Compounds at various concentrations were then added to the wells (at all final concentrations 0.5% DMSO) and incubated for a further 24 h period. The plates were subsequently removed from the incubator and allowed to equilibrate to room temperature, after which 50 μl Caspase-Glo reagent was added to all wells, the plate shaken at 300 rpm for 30 s, and luminescence measured after a 30 min incubation period on an Envision HTS (PerkinElmer).

[2] = system: MCF7 cells; assay: Cell proliferation assay (ATPlite), MCF-7; format: cell-based, human; details: Homo sapiens, inhibition of cell proliferation, 72 h
Summary of the method: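 Cells seeded (MCF-7 2000/well, HG-1 1000/well in RPMI with 2 ng/ml IL-6), then after 24 h exposed to compound at 0.5% DMSO final for 72 h. Proliferation read as ATP luminescence (ATPlite); EC50 calculated from the dose-response.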

[3] = system: HG1 cells; assay: Cell proliferation assay (ATPlite), HG-1; format: cell-based; details: inhibition of cell proliferation, 72 h
Experimental: MCF-7 human breast adenocarcinoma cells and HL-60 acute promyelocytic leukaemia cells were obtained from ATCC (LGC Promochem). HG-1 multiple myeloma cells were obtained from Dr. D. Hose (DKFZ Heidelberg). The CellSensor® HRE-bla HCT116 cell line (colorectal carcinoma) was obtained from Invitrogen.
Cells were grown under humidified 95% air, 5% CO2 at 37° C. in Dulbecco's modified Eagle's medium (DMEM: MCF-7) or RPMI 1640 medium (RPMI: HL-60, HG-1) supplemented with 10% fetal bovine serum (FBS), 100 U/ml penicillin and 100 μg/ml streptomycin, 2 mM L-glutamine, and 2 ng/ml IL-6 (for the HG-1 cell line only). The HCT116 cell line was grown under the same atmospheric conditions in McCoy's 5A medium supplemented with 10% FBS and penicillin/streptomycin as above, in addition to blasticidin as a selection marker at a final concentration of 5 μg/ml.
Cell proliferation experiments were carried out in 96-well tissue culture plates with seeding of 2000 cells/well (MCF-7) or 1000 cells/well (HL-60, HG-1) in 100 μl of the relevant medium. Cells were subsequently incubated under the conditions mentioned for 24 h prior to addition of compounds.
For the determination of compound EC50 values, 10 μl compounds at 11× concentrations in 5.5% DMSO were added to the wells at various concentrations yielding a final constant percentage of 0.5% DMSO at the desired 1× compound concentration. As a positive control, cells were treated with 5.5% DMSO. The cells were then incubated for a further 72 h prior to the measurement.
To determine the degree of inhibition of cell proliferation, cells were treated with ATPlite solution according to the manufacturer's instructions (PerkinElmer, ATPlite 1-step Luminescence ATP Detection Assay System) and luciferase readout measured on an Envision HTS multilabel plate reader (PerkinElmer) in luminescence mode according to established protocols. Raw data were imported into an ActivityBase database (IDBS, ID Business Solutions) and EC50 values calculated using the IDBS program ActivityBase XE. Table 2A and 2B show the IC50 values obtained in the above-outlined cell proliferation assay for exemplary compounds of the invention.

[4] = system: estrogen receptor (ER)-mediated transcriptional activity; assay: Inhibition of estrogen receptor (ER) signaling, ERE-tk-luc transfection assay in MCF-7 cells; format: cell-based; details: Homo sapiens, MCF7, ERE-tk-luc luciferase readout, 24 h
Experimental: To determine the effect of the compounds on estrogen receptor (ER)-mediated transcriptional activity a transfection assay using the MCF-7 cell line was performed. A luciferase-coupled ERE-tk-luc construct was obtained from Dr. G. Reid (EMBL).
In brief, MCF-7 cells were maintained as described previously and seeded on the first experimental day at a concentration of 3500 cells/well in 100 μl medium and incubated under standard conditions for 24 h. Following this initial incubation period, transfection was carried out using 5 ng of the ERE-tk-luc construct (per well) and Exgene 500 transfection reagent (Fermentas) in a final buffered solution containing 150 mM NaCl and 20 mM Tris pH 8.4. The plates were then maintained for 3-4 hours until cell culture conditions in the incubator before compounds were added at 11× concentrations to yield the final desired compound concentrations in 0.5% DMSO (in the same manner as for the proliferation assays described previously).
After an additional 24 h incubation period the degree of inhibition of ER-signaling was determined via a luciferase readout. Cells were treated with Britelite™ plus solution according to the manufacturer's instructions (PerkinElmer, britelite plus, Ultra-High Sensitivity Luminescence Reporter Gene Assay System) and luciferase levels measured on an Envision HTS multilabel plate reader (PerkinElmer) in luminescence mode according to established protocols. Raw data were imported into an ActivityBase database (IDBS, ID Business Solutions) and IC50 values calculated using the IDBS program ActivityBase XE.

pEC50 [1]: > 6.30
pEC50 [2]: > 6.30
pIC50 [4]: > 6.30
Compound: Cc1ccc(S(=O)(=O)Nc2cc(-c3ccc(C#N)s3)ccc2C)cc1 [Example 47, N-[5-(5-Cyano-thiophen-2-yl)-2-methyl-phenyl]-4-methyl-benzenesulfonamide]
pEC50 [3]: > 6.30

From US20120095024A1, “TOLUIDINE SULFONAMIDES AND THEIR USE” (Elara Pharmaceuticals GmbH, priority 2008, published 2012)
